Results from patent publication US8604061B2, “2-aminooxazolines as TAAR1 ligands” (Hoffmann-La Roche Inc., priority 2007, dated 2013).
pKd: −log10 of the molar value.

What was measured:
TAAR1 [1] = target: TAAR1 (Rattus norvegicus, UniProt Q923Y9); assay: TAAR1 radioligand binding, membranes of stably transfected HEK293 cells (rat); details: cell marked 'rat'; radioligand [3H]-rac-2-(1,2,3,4-tetrahydro-1-naphthyl)-2-imidazoline, 4° C.; read-out: Ki (μM) mouse/rat
Method: For the construction of expression plasmids the coding sequences of human, rat and mouse TAAR 1 were amplified from genomic DNA essentially as described by Lindemann et al.. The Expand High Fidelity PCR System (Roche Diagnostics) was used with 1.5 mM Mg^2+ and purified PCR products were cloned into pCR2.1-TOPO cloning vector (Invitrogen) following the instructions of the manufacturer. PCR products were subcloned into the pIRESneo2 vector (BD Clontech, Palo Alto, Calif.), and expression vectors were sequence verified before introduction in cell lines.
HEK293 cells (ATCC #CRL-1573) were cultured essentially as described Lindemann et al. (2005). For the generation of stably transfected cell lines HEK293 cells were transfected with the pIRESneo2 expression plasmids containing the TAAR coding sequences (described above) with Lipofectamine 2000 (Invitrogen) according to the instructions of the manufacturer, and 24 hrs post transfection the culture medium was supplemented with 1 mg/ml G418 (Sigma, Buchs, Switzerland). After a culture period of about 10 d clones were isolated, expanded and tested for responsiveness to trace amines (all compounds purchased from Sigma) with the cAMP Biotrak Enzyme immunoassay (EIA) System (Amersham) following the non-acetylation EIA procedure provided by the manufacturer.
Cells at confluence were rinsed with ice-cold phosphate buffered saline without Ca^2+ and Mg^2+ containing 10 mM EDTA and pelleted by centrifugation at 1000 rpm for 5 min at 4° C. The pellet was then washed twice with ice-cold phosphate buffered saline and cell pellet was frozen immediately by immersion in liquid nitrogen and stored until use at −80° C. Cell pellet was then suspended in 20 ml HEPES-NaOH (20 mM), pH 7.4 containing 10 mM EDTA, and homogenized with a Polytron (PT 3000, Kinematica) at 10,000 rpm for 10 s. The homogenate was centrifuged at 48,000×g for 30 min at 4° C. and the pellet resuspended in 20 ml HEPES-NaOH (20 mM), pH 7.4 containing 0.1 mM EDTA (buffer A), and homogenized with a Polytron at 10,000 rpm for 10 s. The homogenate was then centrifuged at 48,000×g for 30 min at 4° C. and the pellet resuspended in 20 ml buffer A, and homogenized with a Polytron at 10,000 rpm for 10 s. Protein concentration was determined by the method of Pierce (Rockford, Ill.). The homogenate was then centrifuged at 48,000×g for 10 min at 4° C., resuspended in HEPES-NaOH (20 mM), pH 7.0 including MgCl2 (10 mM) and […] homogenized with a Polytron at 10,000 rpm for 10 s.
Binding assay was performed at 4° C. in a final volume of 1 ml, and with an incubation time of 30 min. […] Non-specific binding was defined as the amount of [^3H]-rac-2-(1,2,3,4-tetrahydro-1-naphthyl)-2-imidazoline bound in the presence of the appropriate unlabelled ligand (10 μM). Competing ligands were tested in a wide range of concentrations (10 pM-30 μM). […] Each experiment was performed in duplicate. All incubations were terminated by rapid filtration through UniFilter-96 plates (Packard Instrument Company) and glass filter GF/C, pre-soaked for at least 2 h in polyethylenimine 0.3%, and using a Filtermate 96 Cell Harvester (Packard Instrument Company). The tubes and filters were then washed 3 times with 1 ml aliquots of cold buffer B. Filters were not dried and soaked in Ultima gold (45 μl/well, Packard Instrument Company) and bound radioactivity was counted by a TopCount Microplate Scintillation Counter (Packard Instrument Company).

TAAR1 [2] = assay: TAAR1 radioligand binding, membranes of stably transfected HEK293 cells (mouse); details: TAAR1 binding assay, species not stated; read-out: calculated Kd value of the radioligand
In short: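 Competition binding on membranes from HEK293 cells stably expressing the TAAR1 species ortholog, in HEPES-NaOH pH 7.0 with 10 mM MgCl2 and 2 mM CaCl2, 30 min at 4° C with [3H]-rac-2-(1,2,3,4-tetrahydro-1-naphthyl)-2-imidazoline. Competitors 10 pM–30 μM, duplicates; non-specific binding with 10 μM unlabelled ligand; filtration and scintillation counting.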

In the case of NC1=N[C@@H](c2ccc(Br)cc2Cl)CO1 [Example 316, (+)-(S)-4-(4-Bromo-2-chloro-phenyl)-4,5-dihydro-oxazol-2-ylamine], the Ki (TAAR1 [1]) was 0.0003 µM.
NC1=N[C@@H](COc2cc(Cl)cc(Cl)c2)CO1 [Example 285, (S)-4-(3,5-Dichloro-phenoxymethyl)-4,5-dihydro-oxazol-2-ylamine] was tested, and the Ki (TAAR1 [1]) was 0.0045 µM.
Work on CC[C@]1(c2ccc(Cl)cc2)COC(N)=N1 [Example 313, (S)-4-(4-Chloro-phenyl)-4-ethyl-4,5-dihydro-oxazol-2-ylamine] yielded a Ki (TAAR1 [1]) of 0.005 µM.
Molecule NC1=N[C@@H](c2ccc(Br)c(F)c2)CO1 [Example 321, (+)-(S)-4-(4-Bromo-3-fluoro-phenyl)-4,5-dihydro-oxazol-2-ylamine] has a Ki (TAAR1 [1]) of 0.0014 µM.
Work on Cc1ccc(Cl)cc1[C@H]1COC(N)=N1 [Example 314, (+)-(S)-4-(5-Chloro-2-methyl-phenyl)-4,5-dihydro-oxazol-2-ylamine] yielded a Ki (TAAR1 [1]) of 0.003 µM.
For NC1=N[C@H](c2ccc(Br)cc2Cl)CO1 [Example 315, (−)-(R)-4-(4-Bromo-2-chloro-phenyl)-4,5-dihydro-oxazol-2-ylamine], the Ki (TAAR1 [1]) was 0.0016 µM.
For CC1(c2ccc(F)cc2Cl)COC(N)=N1 (racemic) [Example 318, (RS)-4-(2-Chloro-4-fluoro-phenyl)-4-methyl-4,5-dihydro-oxazol-2-ylamine], the Ki (TAAR1 [1]) was 0.002 µM.
CCC(C[C@H]1COC(N)=N1)c1cccc(Cl)c1 (stereo partly drawn) [Example 287, (S)-4-[2-(3-Chloro-phenyl)-butyl]-4,5-dihydro-oxazol-2-ylamine] gave a Ki (TAAR1 [1]) of 0.0027 µM.
With NC1=N[C@@H](COc2ccc(Br)cc2)CO1 [Example 310, (S)-4-(4-Bromo-phenoxymethyl)-4,5-dihydro-oxazol-2-ylamine] the Ki (TAAR1 [1]) was 0.009 µM.
For CC1(c2cccc(Cl)c2F)COC(N)=N1 (racemic) [Example 311, (RS)-4-(3-Chloro-2-fluoro-phenyl)-4-methyl-4,5-dihydro-oxazol-2-ylamine], the Ki (TAAR1 [1]) was 0.0042 µM.
NC1=N[C@@H](CCc2ccccc2Br)CO1 [Example 322, (S)-4-[2-(2-Bromo-phenyl)-ethyl]-4,5-dihydro-oxazol-2-ylamine] showed a Ki (TAAR1 [1]) of 0.002 µM.
With NC1=N[C@@H](COc2ccc(Cl)c(Cl)c2)CO1 [Example 284, (S)-4-(3,4-Dichloro-phenoxymethyl)-4,5-dihydro-oxazol-2-ylamine] the Ki (TAAR1 [1]) was 0.0028 µM.
Cc1cc([C@@]2(C)COC(N)=N2)ccc1Cl [Example 281, (S)-4-(4-Chloro-3-methyl-phenyl)-4-methyl-4,5-dihydro-oxazol-2-ylamine] was tested, and the Ki (TAAR1 [1]) was 0.0019 µM.
In the case of c1ccc2c(c1)CCCC2C1=NCCN1 (racemic) [[^3H]-rac-2-(1,2,3,4-tetrahydro-1-naphthyl)-2-imidazoline, reference compound], the pKd (TAAR1 [2]) was 7.22.
